Literature values, collected in patent US20210369737A1, “PROSTATE FUNCTION SUPPORT FORMULA” (Innovus Pharmaceuticals, Inc., priority 2017, published 2021).

How the values were obtained:
androgen receptor = target: T1, androgen receptor (Homo sapiens, UniProt P10275); conditions: in vitro
T1 sequence (P10275 1-920): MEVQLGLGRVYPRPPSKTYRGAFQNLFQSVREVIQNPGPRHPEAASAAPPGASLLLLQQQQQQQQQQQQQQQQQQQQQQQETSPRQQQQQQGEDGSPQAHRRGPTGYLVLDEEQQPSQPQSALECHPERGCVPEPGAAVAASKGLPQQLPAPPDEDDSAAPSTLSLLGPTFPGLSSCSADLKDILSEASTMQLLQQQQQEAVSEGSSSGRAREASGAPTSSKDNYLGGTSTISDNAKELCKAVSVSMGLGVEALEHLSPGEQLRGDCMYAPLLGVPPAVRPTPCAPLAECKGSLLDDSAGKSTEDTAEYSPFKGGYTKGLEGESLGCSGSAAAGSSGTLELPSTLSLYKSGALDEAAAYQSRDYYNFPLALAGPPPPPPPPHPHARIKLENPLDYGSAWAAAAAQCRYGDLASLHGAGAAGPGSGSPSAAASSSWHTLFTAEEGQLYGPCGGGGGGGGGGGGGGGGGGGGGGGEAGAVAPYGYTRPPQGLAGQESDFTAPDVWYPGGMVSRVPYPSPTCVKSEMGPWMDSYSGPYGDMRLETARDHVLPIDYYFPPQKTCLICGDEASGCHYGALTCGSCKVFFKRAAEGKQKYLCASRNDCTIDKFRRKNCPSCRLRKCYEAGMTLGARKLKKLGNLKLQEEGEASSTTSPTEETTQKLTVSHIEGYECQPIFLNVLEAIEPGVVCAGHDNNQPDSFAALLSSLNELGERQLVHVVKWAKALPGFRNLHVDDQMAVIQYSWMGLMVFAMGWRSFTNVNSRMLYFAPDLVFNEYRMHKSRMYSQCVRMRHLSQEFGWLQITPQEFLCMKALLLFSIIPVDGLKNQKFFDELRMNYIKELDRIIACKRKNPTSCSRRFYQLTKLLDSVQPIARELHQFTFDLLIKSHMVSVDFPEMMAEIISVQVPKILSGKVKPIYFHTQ

prostate cancer = conditions: in vitro and in vivo
PSA = conditions: clinical trials
[1] = in vivo
prostate cancer cells [2] = system: prostate cancer cells
prostate cancer cell = conditions: in vitro
prostate tumors = conditions: TRAMP mice
[3] = system: prostate cancer and BPH cells; conditions: in vitro
[4] = system: human prostate tumor in vivo xenografts
prostate cancer cells [5] = conditions: in vitro

## [Se] [Selenium]
Androgen receptor
  levels of p53: increase levels of p53
Androgen receptor; prostate cancer cells
  activity of the androgen receptor: decrease the activity of the androgen receptor
Prostate cancer
  prostate cancer risk, tumor progression, apoptosis: reduce risk of prostate cancer, suppress tumor progression and cell apoptosis

## CC[C@H](CC[C@@H](C)[C@H]1CC[C@H]2[C@@H]3CC=C4C[C@@H](O)CC[C@]4(C)[C@H]3CC[C@]12C)C(C)C [Beta-sitosterols, Beta-Sitosterol]
BPH; clinical
  levels of DHT: decrease levels of DHT
  urinary flow: significantly improve urinary flow
BPH; follow-up study, observation
  maintenance of improvements in follow-up: 18 months
BPH; versus placebo, after three and six months of treatment
  symptom scores: significant decrease in symptom scores

## CC(C)=CCC/C(C)=C/C=C/C(C)=C/C=C/C(C)=C/C=C/C=C(C)/C=C/C=C(C)/C=C/C=C(\C)CCC=C(C)C [Lycopene]
PSA
  PSA levels: reduction of PSA levels
[1]
  safety status: generally recognized as safe (GRAS)
Prostate cancer cells [2]; animal studies
  antitumorigenic effect: antitumorigenic effect
Prostate cancer cells [2]; in vitro and in vivo
  antioxidant response, proliferation, apoptosis, metastatic capacity of prostate cells: enhance the antioxidant response of prostate cells, inhibit proliferation, demonstrate chemopreventive effect induce apoptosis and decrease the metastatic capacity of prostate cancer cells

## O=C(O[C@@H]1Cc2c(O)cc(O)cc2O[C@@H]1c1cc(O)c(O)c(O)c1)c1cc(O)c(O)c(O)c1 [EGCG]
Prostate cancer cell
  androgen antagonism: acts as an anti-androgen antagonist
  prostate cancer cell proliferation and PSA production: suppresses prostate cancer cell proliferation and production of prostate-specific antigen (PSA)
Prostate tumors
  tumor size and development of prostate tumors: reduces tumor size and delays development of prostate tumors

## [Zn] [Zinc]
[3]
  apoptosis and antiproliferative effects: induces apoptosis and antiproliferative effects

## O=c1c(O)c(-c2ccc(O)c(O)c2)oc2cc(O)cc(O)c12 [Quercetin, 2-(3,4-dihydroxyphenyl)-3,5,7-trihydroxy-4H-chromen-4-one]
CP/CPPS; clinical
  symptoms in CP/CPPS: symptomatic improvement
CP/CPPS; randomized, double-blind, placebo controlled clinical trial
  IPSS: decrease in IPSS
[4]; in vivo, in combination with finasteride
  prostate weight and anti-tumor activity: effective in vivo in combination with finasteride to reduce prostate weight and anti-tumor activity
[4]; mice
  effect on human prostate tumor xenografts: has an effect on human prostate tumor in vivo xenografts
Prostate cancer cells [5]
  apoptosis and caspase activation: promoted prostate cancer cells apoptosis and caspase activation
  prostate cancer cell proliferation: inhibits prostate cancer cell proliferation

## Vitamin E
Prostate cancer
  prostate cancer risk, tumor progression, apoptosis: reduce risk of prostate cancer, suppress tumor progression and cell apoptosis
